# How the values were obtained:
# THP1 = assay: Cytotoxicity assay (MTT, 72 h) THP1; assay type: cell-based; conditions: Homo sapiens, THP-1, read-out: IC50 ± SD THP1
# HDAC2 = HDAC2 (Homo sapiens, UniProt Q92769); assay: HDAC profiling HDAC2; assay type: biochemical; conditions: purified isoform, 10 concentrations from 10 μM, triplicate
# H2A.X = assay: Western blot, H2A.X induction in NCI-H460 cells; assay type: cell-based, Human; conditions: 24 h; SAHA 5 μM, SN38 0.05 μM, 3d 0.125–0.2–0.5 μM
# Method: (§1) The supernatant, containing the total proteins extracts, were transferred in new vials. The protein concentration was measured by Bradford Protein Assay. Equal amounts of proteins for each sample were then resolved by SDS-PAGE and loaded on 10–12% polyacrilamide gels. The proteins were then transferred on nitrocellulose membranes. Molecular weights were estimated based upon the relative migration with molecular weight protein markers.
# (§2) The non-specific binding was blocked by incubation of membranes in TBS-tween (25 mM Tris, 150 mM NaCl, 0.1% Tween 20) with 5% nonfat dry milk (BIORAD, Milan) for 60 minutes. Subsequently, the membrane was incubated overnight with primary antibodies: anti-Histone H4 (Millipore, 1:500), anti-acetyl-H4 (Santa Cruz, 1:1000) anti-p21 (Santa Cruz, 1:1000), anti-acetyl-tubulin (abcam, 1:1000), anti-α-tubulin (Sigma, 1:5000), anti β-actin (Sigma, 1:5000) and anti-Topoisomerase 1 (Santa Cruz, 1:500). After three washes with TBST blots were incubated with HRP-coniugated secondary anti-mouse and anti-rabbit (Santa Cruz, 1:5000) 1 hour at room temperature. After three washes with TBST the blots were developed with ECL substrate (GE Healthcare) and chemiluminescence detected by ChemiDoc Imaging System (Biorad). The optical density of the protein bands detected by western blotting was normalized on α -tubulin levels and analyzed by ChemiDoc software (Biorad).
# (§3) Cells were lysed in 0.5% NP-40 and 40 μg of total proteins were loaded on NuPAGE 4–12% (Invitrogen), transferred to a nitrocellulose paper and probed with specific antibodies.
# MINO = assay: Cytotoxicity assay (MTT, 72 h) MINO; assay type: cell-based, Human; conditions: Homo sapiens, MINO; 72 h, MTT assay; read-out: IC50 ± SD MINO
# K 562 = assay: Cytotoxicity assay (MTT, 72 h) K 562; assay type: cell-based; conditions: Homo sapiens, K562, read-out: IC50 ± SD K 562
# MM472 = assay: Cytotoxicity assay, primary mesothelioma MM472; assay type: cell-based, Human; conditions: Homo sapiens; sarcomatoid, 72 h, SBR assay; read-out: IC50 ± SD MM472
# HDAC6 = HDAC6 (Homo sapiens, UniProt Q9UBN7); assay: HDAC profiling HDAC6; assay type: biochemical; conditions: purified isoform, 10 concentrations from 10 μM, triplicate
# HDAC6, sequence (Q9UBN7 whole entry, canonical isoform): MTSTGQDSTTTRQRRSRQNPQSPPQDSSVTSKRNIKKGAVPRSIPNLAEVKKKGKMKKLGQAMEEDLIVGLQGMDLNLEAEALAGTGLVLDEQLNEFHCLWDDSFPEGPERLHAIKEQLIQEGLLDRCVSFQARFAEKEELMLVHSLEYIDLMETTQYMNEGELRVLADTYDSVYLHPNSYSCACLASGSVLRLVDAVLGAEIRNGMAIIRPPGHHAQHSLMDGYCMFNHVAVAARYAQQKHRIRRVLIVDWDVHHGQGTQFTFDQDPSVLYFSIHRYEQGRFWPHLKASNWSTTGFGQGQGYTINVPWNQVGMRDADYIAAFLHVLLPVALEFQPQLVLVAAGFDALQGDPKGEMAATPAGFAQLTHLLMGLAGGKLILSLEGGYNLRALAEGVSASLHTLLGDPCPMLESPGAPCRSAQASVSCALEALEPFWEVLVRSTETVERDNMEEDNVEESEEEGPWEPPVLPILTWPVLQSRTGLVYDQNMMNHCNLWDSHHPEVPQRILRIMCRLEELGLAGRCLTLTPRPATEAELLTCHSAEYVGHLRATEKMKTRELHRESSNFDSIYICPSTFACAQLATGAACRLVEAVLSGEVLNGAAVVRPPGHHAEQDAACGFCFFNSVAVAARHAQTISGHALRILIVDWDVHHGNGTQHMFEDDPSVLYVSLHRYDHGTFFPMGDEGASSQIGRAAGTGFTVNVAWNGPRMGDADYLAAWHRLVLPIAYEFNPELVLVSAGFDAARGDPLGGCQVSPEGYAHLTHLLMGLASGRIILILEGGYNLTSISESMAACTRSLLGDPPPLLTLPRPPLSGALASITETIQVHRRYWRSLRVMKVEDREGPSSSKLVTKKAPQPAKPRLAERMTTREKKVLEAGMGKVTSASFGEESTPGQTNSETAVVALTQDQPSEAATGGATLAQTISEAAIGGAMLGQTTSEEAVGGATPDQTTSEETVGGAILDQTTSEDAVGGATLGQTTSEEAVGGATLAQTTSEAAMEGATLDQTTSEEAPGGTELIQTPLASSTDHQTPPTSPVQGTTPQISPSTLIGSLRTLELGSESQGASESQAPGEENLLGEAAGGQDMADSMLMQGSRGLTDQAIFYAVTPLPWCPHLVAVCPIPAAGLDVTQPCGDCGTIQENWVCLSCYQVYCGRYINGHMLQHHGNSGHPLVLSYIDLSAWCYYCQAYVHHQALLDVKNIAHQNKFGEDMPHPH
# MM481 = assay: Cytotoxicity assay, primary mesothelioma MM481; assay type: cell-based, Human; conditions: Homo sapiens; epithelioid, 72 h, SBR assay; read-out: IC50 ± SD MM481
# ARH-77 = assay: Cytotoxicity assay (MTT, 72 h) ARH-77; assay type: cell-based; conditions: Homo sapiens, read-out: IC50 ± SD ARH-77
# A2780-Dx = assay: Cytotoxicity assay (SRB, 72 h) A2780-Dx; assay type: cell-based, Human
# [1] = mouse, in vivo, iv, 45 mg/kg
# MM473 = assay: Cytotoxicity assay, primary mesothelioma MM473; assay type: cell-based, Human; conditions: Homo sapiens, MM473; epithelioid, 72 h, SBR assay; read-out: IC50 ± SD MM473
# DG-75 = assay: Cytotoxicity assay (MTT, 72 h) DG-75; assay type: cell-based, Human; conditions: Homo sapiens, DG-75; 72 h, MTT assay; read-out: IC50 ± SD DG-75
# JECO-1 = assay: Cytotoxicity assay (MTT, 72 h) JECO-1; assay type: cell-based, Human; conditions: Homo sapiens; 72 h, MTT assay; read-out: IC50 ± SD JECO-1
# U-2932 = assay: Cytotoxicity assay (MTT, 72 h) U-2932; assay type: cell-based, Human; conditions: Homo sapiens, U2932, read-out: IC50 ± SD U-2932
# RPMI-8226 = assay: Cytotoxicity assay (MTT, 72 h) RPMI-8226; assay type: cell-based; conditions: Homo sapiens, read-out: IC50 ± SD RPMI-8226
# Method: (§4) Human tumor cells were seeded in 96-well cell culture plastic plates, allowed to attach, and exposed to scalar concentrations of the test compounds.
# [2] = system: hematologic cancer cell lines; assay: Screening on hematologic cancer cell lines (summary); assay type: cell-based; conditions: Homo sapiens, read-out: IC50 across hematologic cancer cell lines (Tables 5 and 6); span over the cell line panel, 72 h, MTT assay
# p21 = assay: Western blot, p21 in NCI-H460 cells; assay type: cell-based, Human; conditions: 24 h; SAHA 5 μM, SN38 0.05 μM, 3d 0.125–0.2–0.5 μM
# Method: as §1
# as §2, with “software (Biorad). […]” for “software (Biorad).”
# L-428 = assay: Cytotoxicity assay (MTT, 72 h) L-428; assay type: cell-based, Human; conditions: Homo sapiens, L-428; 72 h, MTT assay; read-out: IC50 ± SD L-428
# Method: as §4
# p16 = assay: Western blot, p16 in NCI-H460 cells; assay type: cell-based, Human; conditions: 24 h; SAHA 5 μM, SN38 0.05 μM, 3d 0.125–0.2–0.5 μM
# Method: as §1, §2, §3
# [3] = system: primary malignant pleural mesothelioma (MPM) cell lines; assay: Primary malignant pleural mesothelioma (MPM) cell lines (summary); assay type: cell-based; conditions: Homo sapiens, span over the cell line panel, 72 h, read-out: IC50 across primary mesothelioma cell lines (Table 7)
# MM487 = assay: Cytotoxicity assay, primary mesothelioma MM487; assay type: cell-based, Human; conditions: Homo sapiens, MM487; biphasic, 72 h, SBR assay; read-out: IC50 ± SD MM487
# MV4-11 = assay: Cytotoxicity assay (MTT, 72 h) MV4-11; assay type: cell-based; conditions: Homo sapiens, read-out: IC50 ± SD MV4-11
# [4] = system: human epithelioid mesothelioma MM473-Luc; assay: In vivo antitumor activity, orthotopic MM473-Luc xenograft; conditions: i.v. 45 mg/kg, q4dx3w, treatment from day 15
# p53 = assay: Western blot, p53 in NCI-H460 cells; assay type: cell-based, Human; conditions: 24 h; SAHA 5 μM, SN38 0.05 μM, 3d 0.125–0.2–0.5 μM
# Method: as §1, §2, §3
# A431 = assay: Cytotoxicity assay (SRB, 72 h) A431; assay type: cell-based, Human; conditions: Homo sapiens, A-431, read-out: IC50 ± SD A431
# NCI-H460 = assay: Cytotoxicity assay (SRB, 72 h) NCI-H460; assay type: cell-based, Human; conditions: Homo sapiens, NCI-H460; 72 h, SRB assay; read-out: IC50 ± SD NCI-H460
# Capan 1 = assay: Cytotoxicity assay (SRB, 72 h) Capan 1; assay type: cell-based, Human; conditions: Homo sapiens, CAPAN-1, read-out: IC50 ± SD Capan 1
# Z-138 = assay: Cytotoxicity assay (MTT, 72 h) Z-138; assay type: cell-based; conditions: Homo sapiens, read-out: IC50 ± SD Z-138
# HDAC2, sequence (Q92769 whole entry, canonical isoform): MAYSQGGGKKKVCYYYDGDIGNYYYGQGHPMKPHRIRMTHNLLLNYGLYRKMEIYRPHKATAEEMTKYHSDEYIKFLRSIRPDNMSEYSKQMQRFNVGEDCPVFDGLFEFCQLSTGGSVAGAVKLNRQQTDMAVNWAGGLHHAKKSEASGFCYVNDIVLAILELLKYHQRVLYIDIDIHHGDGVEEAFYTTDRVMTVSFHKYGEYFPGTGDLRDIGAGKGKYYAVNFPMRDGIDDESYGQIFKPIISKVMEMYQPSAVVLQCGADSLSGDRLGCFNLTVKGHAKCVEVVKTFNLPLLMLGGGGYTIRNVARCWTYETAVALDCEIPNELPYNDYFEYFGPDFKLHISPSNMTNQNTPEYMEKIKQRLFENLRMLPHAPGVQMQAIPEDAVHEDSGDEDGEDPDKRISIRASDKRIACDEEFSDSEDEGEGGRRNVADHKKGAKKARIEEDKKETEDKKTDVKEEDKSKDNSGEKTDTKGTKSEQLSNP
smiles,measurement,setting,value
"CC[C@@]1(O)C(=O)OCc2c1cc1n(c2=O)Cc2c-1nc1ccc(O)cc1c2C=NOCCCCCC(=O)NO [Compound 3d, 6-(10-hydroxycamptothecin-7-ylmethyleneaminooxy)-hexanoic acid hydroxyamide]",IC50,THP1,220 ± 90 nM
same,IC50,HDAC2,93.3 nM
same,H2A.X induction (DNA damage),H2A.X,"DNA damage at a dose corresponding to its IC80, confirmed by H2A.X induction"
same,IC50,MINO,31 ± 10 nM
same,IC50,K 562,940 ± 200 nM
same,IC50,MM472,48 ± 10 nM
same,IC50,HDAC6,1.56 nM
same,IC50,MM481,11700 ± 1200 nM
same,IC50,ARH-77,210 ± 60 nM
same,RI (Resistance Index),A2780-Dx; A2780-Dx versus A2780,6.6
same,IC50,"A2780-Dx; Homo sapiens, A2780/DX, 72 h, SRB assay, multidrug-resistant ovarian carcinoma, read-out: IC50 ± SD A2780-Dx",1800 ± 400 nM
same,body weight,[1],no reduction in body weight was observed
same,IC50,MM473,2100 ± 500 nM
same,IC50,DG-75,1900 ± 200 nM
same,IC50,JECO-1,23 ± 6 nM
same,IC50,U-2932,44 ± 10 nM
same,IC50,RPMI-8226,4100 ± 1400 nM
same,IC50,[2],6 to 4000 nM
same,expression of p21,p21,activated the expression of p21
same,IC50,L-428,430 ± 70 nM
same,P16 regulation,p16,didn’t show any effect
same,IC50,[3],50 to 11000 nM
same,IC50,MM487,200 ± 50 nM
same,IC50,MV4-11,2730 ± 300 nM
same,"antitumor activity (BLI signal, average radiance)",[4],strong antitumor activity
same,p53 activation,p53,induced p53 activation
same,IC50,A431,140 ± 20 nM
same,IC50,NCI-H460,270 ± 20 nM
same,IC50,Capan 1,35 ± 2 nM
same,IC50,Z-138,6 ± 1 nM

# From PMC6177136, “Hybrid topoisomerase I and HDAC inhibitors as dual action anticancer agents” (PLoS ONE, 2018)
